Assay results as given in ChEMBL document CHEMBL3621135 (ACS Med Chem Lett, 2015).
Calls of active or inactive are those of the source. The calls are words filed in the database; no cut-off is given here.

Legend:
[1] = biological target: Tyrosine-protein kinase JAK2 (Mus musculus, UniProt Q62120); assay: Inhibition of JAK2 in mouse BAF3 cells assessed as reduction in STAT5 phosphorylation incubated for 2 hrs by Western blot method; type: cell-based
JAK3/JAK1 = JAK3/JAK1 (Homo sapiens, UniProt P23458+P52333); assay: Inhibition of JAK1/JAK3 in T cells (unknown origin) assessed as reduction in IL2-mediated cell proliferation; type: cell-based
JAK3/JAK1, sequence (P23458 whole entry, one chain of several): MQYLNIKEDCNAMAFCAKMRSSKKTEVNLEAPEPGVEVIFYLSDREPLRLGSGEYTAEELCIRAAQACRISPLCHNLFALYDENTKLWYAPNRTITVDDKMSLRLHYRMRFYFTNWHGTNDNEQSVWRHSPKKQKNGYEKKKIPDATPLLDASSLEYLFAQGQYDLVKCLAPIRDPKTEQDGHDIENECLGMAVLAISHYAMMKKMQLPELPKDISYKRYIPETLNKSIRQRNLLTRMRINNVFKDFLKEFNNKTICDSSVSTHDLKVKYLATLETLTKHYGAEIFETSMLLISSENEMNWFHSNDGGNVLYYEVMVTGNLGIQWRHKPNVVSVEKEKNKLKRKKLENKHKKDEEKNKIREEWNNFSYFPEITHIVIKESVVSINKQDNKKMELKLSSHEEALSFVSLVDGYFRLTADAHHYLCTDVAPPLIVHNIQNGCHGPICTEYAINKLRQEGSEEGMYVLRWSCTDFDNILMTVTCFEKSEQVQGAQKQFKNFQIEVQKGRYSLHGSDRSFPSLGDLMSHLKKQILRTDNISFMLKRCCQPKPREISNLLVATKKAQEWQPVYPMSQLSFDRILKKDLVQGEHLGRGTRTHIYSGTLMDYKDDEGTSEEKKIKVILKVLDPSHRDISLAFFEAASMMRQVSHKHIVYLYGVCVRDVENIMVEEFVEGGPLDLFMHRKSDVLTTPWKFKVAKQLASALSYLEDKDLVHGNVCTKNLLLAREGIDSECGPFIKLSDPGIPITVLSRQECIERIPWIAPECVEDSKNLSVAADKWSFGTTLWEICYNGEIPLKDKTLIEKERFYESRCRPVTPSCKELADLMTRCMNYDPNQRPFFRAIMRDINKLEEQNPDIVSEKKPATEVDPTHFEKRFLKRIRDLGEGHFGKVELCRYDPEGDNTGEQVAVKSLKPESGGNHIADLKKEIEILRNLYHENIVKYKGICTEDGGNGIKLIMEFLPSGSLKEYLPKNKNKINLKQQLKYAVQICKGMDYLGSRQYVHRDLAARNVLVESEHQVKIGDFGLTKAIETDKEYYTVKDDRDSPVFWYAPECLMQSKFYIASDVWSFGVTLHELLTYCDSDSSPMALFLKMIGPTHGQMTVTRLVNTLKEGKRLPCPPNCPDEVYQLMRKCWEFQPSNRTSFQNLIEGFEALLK

Mus musculus [2] = assay: Inhibition of JAK2 in mouse pharamcodynamic model assessed as reduction in STAT5 phosphorylation at 10 mg/kg, po measured up to 18 hrs; type: functional
Mus musculus [3] = assay: Inhibition of JAK2 in mouse pharamcodynamic model assessed as reduction in STAT5 phosphorylation at 5 mg/kg, po measured after 8 hrs; type: functional
[4] = AUC (0 to 8 hrs) in mouse pharamcodynamic model at 5 mg/kg, po; type: ADME, organism-based; parameters: dose 5 mg/kg, time < 8 hr, route oral; details: in vivo
Mus musculus [5] = assay: AUC (0 to 8 hrs) in mouse pharamcodynamic model at 10 mg/kg, po; type: ADME, organism-based; parameters: dose 10 mg/kg, time < 8 hr, route oral; details: in vivo
[6] = AUC (0 to 8 hrs) in mouse pharamcodynamic model at 30 mg/kg, po; type: ADME, organism-based; parameters: dose 30 mg/kg, time < 8 hr, route oral; details: in vivo
Mus musculus [7] = assay: Inhibition of JAK2 V617F mutant in mouse pharamcodynamic model expressing JAK2 V617F mutant assessed as reduction in STAT5 phosphorylation at 2 mg/kg, po measured up to 7 hrs; type: functional, organism-based
Phosphodiesterase 4 = Phosphodiesterase 4 (Homo sapiens, UniProt P27815+Q08499+Q07343+Q08493); assay: Inhibition of PDE4 (unknown origin); type: protein assay
Rattus norvegicus [8] = assay: Toxicity in rat assessed as drug tolerability up to 100 mg/kg; type: organism-based; details: in vivo
[9] = AUC (0 to 72 hrs) in rat; type: ADME, organism-based; parameters: time < 72 hr; details: in vivo
Rattus norvegicus [10] = assay: Toxicity in rat assessed as drug tolerability at 15 mg/kg/day for 2 weeks; type: organism-based; details: in vivo, 336 h
Rattus norvegicus [11] = assay: Reduction in red blood cell mass in rat at 15 mg/kg/day for 2 weeks; type: functional, organism-based
[12] = Half in human liver microsomes; type: ADME
[13] = Half in rat liver microsomes; type: ADME
[14] = Half in dog liver microsomes; type: ADME, Canis lupus familiaris
[15] = Permeability of the compound in pH 7.4 solution by PAMPA method; type: physicochemical; details: read-out: permeability
[16] = Inhibition of CYP450 in human liver microsomes; type: ADME
hERG = hERG (Homo sapiens, UniProt Q12809); assay: Inhibition of human ERG at 30 uM by patch clamp assay
hERG, sequence (Q12809 whole entry): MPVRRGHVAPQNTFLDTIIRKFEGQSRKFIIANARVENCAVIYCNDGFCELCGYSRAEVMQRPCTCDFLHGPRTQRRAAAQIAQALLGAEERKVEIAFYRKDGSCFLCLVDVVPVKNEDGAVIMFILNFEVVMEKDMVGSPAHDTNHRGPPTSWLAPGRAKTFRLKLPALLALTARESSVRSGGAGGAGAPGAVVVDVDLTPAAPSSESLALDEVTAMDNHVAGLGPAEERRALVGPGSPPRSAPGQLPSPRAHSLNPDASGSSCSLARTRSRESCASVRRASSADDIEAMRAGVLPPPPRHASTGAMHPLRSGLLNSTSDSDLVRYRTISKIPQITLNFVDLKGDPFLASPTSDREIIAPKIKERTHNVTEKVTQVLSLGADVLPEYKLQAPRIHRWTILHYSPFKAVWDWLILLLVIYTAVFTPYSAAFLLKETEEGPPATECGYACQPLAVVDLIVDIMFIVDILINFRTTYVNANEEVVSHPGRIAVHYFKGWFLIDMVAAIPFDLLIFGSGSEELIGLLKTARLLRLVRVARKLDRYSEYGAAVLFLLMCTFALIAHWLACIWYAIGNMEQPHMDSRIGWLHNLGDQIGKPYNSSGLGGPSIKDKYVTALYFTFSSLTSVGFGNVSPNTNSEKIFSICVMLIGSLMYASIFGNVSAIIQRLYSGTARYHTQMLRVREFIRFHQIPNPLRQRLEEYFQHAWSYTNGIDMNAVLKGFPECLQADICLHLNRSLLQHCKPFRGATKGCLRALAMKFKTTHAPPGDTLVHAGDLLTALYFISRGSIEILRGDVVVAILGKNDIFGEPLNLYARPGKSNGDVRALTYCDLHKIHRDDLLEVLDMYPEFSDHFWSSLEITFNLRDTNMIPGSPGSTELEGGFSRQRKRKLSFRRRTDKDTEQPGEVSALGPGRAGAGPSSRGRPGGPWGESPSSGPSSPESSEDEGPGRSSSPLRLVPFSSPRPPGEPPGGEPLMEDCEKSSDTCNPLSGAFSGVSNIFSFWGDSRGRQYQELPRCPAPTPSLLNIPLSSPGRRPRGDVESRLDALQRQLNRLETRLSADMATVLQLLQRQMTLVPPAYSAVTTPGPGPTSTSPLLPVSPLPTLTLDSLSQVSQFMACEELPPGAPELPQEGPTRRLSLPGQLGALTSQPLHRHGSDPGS

[17] = Volume of distribution at steady state in mouse at 2 mg/kg, iv and 10 mg/kg, po; type: ADME, organism-based; details: in vivo, read-out: Vdss
[18] = Half life in mouse at 2 mg/kg, iv and 10 mg/kg, po; type: ADME, organism-based; details: in vivo
[19] = Volume of distribution at steady state in rat at 1 mg/kg, iv and 1 mg/kg, po; type: ADME, organism-based; details: in vivo, read-out: Vdss
[20] = Volume of distribution at steady state in dog at 0.2 mg/kg, iv and 0.2 mg/kg, po; type: ADME, organism-based, Canis lupus familiaris; details: in vivo, read-out: Vdss
[21] = Clearance in cynomolgus monkey at 1 mg/kg, iv and 1 mg/kg, po; type: ADME, organism-based, Macaca fascicularis; details: in vivo
[22] = Volume of distribution at steady state in cynomolgus monkey at 1 mg/kg, iv and 1 mg/kg, po; type: ADME, organism-based, Macaca fascicularis; details: in vivo, read-out: Vdss
[23] = biological target: T1, Tyrosine-protein kinase JAK2 (Homo sapiens, UniProt O60674); assay: Inhibition of recombinant JAK2 (unknown origin) using 5-FAM-KKKKEEIYFFFG-OH substrate and ATP incubated for 180 mins by […] method
T1 sequence (O60674 whole entry): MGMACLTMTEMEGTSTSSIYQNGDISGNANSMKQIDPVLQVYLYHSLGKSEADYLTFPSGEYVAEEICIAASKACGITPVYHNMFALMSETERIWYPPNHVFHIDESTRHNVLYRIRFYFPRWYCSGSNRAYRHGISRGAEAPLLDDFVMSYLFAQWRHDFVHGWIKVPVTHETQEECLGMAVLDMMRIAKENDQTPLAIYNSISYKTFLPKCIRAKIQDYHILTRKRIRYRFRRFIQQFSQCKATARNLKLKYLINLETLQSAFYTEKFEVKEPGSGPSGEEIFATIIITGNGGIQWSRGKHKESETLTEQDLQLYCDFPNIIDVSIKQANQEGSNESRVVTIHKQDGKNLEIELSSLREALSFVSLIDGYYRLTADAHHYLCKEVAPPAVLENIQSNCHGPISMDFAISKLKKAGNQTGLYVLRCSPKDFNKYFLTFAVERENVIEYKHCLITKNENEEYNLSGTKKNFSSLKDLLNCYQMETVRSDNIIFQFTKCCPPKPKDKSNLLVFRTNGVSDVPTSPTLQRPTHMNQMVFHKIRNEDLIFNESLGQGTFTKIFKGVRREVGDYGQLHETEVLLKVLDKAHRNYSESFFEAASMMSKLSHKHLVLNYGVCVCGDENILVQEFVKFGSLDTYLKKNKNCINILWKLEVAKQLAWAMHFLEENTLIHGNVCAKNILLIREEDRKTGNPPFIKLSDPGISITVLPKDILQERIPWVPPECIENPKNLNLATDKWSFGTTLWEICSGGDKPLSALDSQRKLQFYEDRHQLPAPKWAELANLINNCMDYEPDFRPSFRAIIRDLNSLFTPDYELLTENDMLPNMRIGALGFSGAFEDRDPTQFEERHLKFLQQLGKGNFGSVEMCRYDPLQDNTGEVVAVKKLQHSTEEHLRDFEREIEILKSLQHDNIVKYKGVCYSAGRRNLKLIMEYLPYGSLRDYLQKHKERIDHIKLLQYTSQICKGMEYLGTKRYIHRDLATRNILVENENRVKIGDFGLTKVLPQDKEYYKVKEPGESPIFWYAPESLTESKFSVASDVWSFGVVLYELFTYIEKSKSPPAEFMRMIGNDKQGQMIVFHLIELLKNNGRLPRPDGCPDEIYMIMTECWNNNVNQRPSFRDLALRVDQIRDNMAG

[24] = biological target: T1, Tyrosine-protein kinase JAK2; assay: Binding affinity to JAK2 (unknown origin) assessed as dissociation constant
[25] = biological target: T2, Tyrosine-protein kinase JAK3 (Homo sapiens, UniProt P52333); assay: Binding affinity to JAK3 (unknown origin) assessed as dissociation constant
T2 sequence (P52333 whole entry): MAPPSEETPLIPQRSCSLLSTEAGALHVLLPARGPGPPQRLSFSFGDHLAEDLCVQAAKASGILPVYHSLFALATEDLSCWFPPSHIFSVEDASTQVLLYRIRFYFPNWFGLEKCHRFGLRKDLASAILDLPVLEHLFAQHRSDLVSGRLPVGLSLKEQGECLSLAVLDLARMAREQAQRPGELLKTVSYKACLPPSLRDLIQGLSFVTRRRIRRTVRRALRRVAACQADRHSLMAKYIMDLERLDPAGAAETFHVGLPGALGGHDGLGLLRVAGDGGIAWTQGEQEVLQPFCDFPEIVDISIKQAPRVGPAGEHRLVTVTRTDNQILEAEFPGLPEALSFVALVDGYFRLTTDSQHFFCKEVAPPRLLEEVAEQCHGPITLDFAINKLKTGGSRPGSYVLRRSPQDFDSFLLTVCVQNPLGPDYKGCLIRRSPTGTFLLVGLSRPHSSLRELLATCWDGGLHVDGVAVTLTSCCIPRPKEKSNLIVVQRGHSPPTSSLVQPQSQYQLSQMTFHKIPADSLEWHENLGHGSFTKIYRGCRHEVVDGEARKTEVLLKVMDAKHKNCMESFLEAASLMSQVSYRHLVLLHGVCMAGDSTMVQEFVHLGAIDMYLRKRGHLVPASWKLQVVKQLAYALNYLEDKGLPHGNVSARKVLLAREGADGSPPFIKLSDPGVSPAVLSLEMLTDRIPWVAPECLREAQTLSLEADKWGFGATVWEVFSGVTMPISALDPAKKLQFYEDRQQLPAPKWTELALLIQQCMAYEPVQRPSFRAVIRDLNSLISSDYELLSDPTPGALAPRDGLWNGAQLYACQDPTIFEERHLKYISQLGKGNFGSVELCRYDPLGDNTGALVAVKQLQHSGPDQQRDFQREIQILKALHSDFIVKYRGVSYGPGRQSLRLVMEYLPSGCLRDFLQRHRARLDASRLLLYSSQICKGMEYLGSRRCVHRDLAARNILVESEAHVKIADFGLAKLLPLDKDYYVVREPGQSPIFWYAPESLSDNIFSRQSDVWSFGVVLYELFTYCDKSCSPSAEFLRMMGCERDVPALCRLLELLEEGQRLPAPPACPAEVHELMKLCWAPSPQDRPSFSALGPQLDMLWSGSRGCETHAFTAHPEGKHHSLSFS

BaF3 = assay: Antiproliferative activity against mouse BAF3 cells expressing JAK2 V617F mutant incubated for 72 hrs by [3H] thymidine incorporation assay; type: functional, cell-based

Tyrosine-protein kinase JAK2 (Mus musculus, UniProt Q62120), sequence (Q62120 whole entry): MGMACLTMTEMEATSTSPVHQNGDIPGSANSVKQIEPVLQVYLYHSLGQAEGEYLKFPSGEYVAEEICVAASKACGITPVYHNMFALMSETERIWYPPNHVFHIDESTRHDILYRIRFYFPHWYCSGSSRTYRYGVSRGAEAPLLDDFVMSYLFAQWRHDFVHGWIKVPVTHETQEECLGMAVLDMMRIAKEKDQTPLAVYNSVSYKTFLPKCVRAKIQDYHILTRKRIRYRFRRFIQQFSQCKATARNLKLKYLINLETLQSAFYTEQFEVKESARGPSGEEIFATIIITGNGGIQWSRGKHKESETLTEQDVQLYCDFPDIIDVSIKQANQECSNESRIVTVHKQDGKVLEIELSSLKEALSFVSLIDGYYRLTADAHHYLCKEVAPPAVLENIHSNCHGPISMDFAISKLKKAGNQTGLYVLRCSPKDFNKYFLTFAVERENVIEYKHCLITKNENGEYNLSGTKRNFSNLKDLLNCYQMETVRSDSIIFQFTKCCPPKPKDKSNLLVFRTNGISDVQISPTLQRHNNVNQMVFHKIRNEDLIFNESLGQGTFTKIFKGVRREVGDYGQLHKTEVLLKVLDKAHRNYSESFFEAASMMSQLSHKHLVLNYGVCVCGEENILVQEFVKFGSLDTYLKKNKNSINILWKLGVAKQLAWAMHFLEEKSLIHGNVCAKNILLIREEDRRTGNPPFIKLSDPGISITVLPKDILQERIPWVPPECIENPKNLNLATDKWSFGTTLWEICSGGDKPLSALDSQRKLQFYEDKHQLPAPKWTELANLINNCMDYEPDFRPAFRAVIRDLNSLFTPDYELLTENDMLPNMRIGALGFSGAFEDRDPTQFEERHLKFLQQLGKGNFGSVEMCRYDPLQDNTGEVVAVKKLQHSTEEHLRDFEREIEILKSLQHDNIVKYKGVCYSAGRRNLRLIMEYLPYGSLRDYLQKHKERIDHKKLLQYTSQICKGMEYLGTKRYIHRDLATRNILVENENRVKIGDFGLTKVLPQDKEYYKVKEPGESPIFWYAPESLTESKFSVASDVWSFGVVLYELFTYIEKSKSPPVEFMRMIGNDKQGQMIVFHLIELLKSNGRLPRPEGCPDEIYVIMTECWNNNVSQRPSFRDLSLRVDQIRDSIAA

With `CCn1c(C(=O)N(C2CC2)C2CC2)cc2c3c(ncn3C)c(Nc3cc(C)n(C)n3)nc21` [BMS-911543] as the compound, how does the IC50 [1] read?
Its IC50 is 0.065 µM.

And the IC50 (JAK3/JAK1)?
The IC50 was 0.99 µM.

What about the inhibition in vivo at 10 mg/kg (Mus musculus [2]) of the same compound?
Its inhibition in vivo at 10 mg/kg is 65%.

And the inhibition in vivo at 5 mg/kg (Mus musculus [3])?
Its inhibition in vivo at 5 mg/kg is 50%.

What about the AUC(0-t) at 8 h [4] of the same compound?
Its AUC(0-t) at 8 h is 23 µM·h.

And the AUC (Mus musculus [5])?
Its AUC is 41 µM·h.

What about the AUC(0-t) at 8 h [6] of the same compound?
The AUC(0-t) at 8 h was 109 µM·h.

What about the inhibition (Mus musculus [7]) of the same compound?
The inhibition was “Active”.

What about the IC50 (Phosphodiesterase 4) of the same compound?
Its IC50 is 5.6 µM.

What about the Activity (Rattus norvegicus [8]) of the same compound?
Its Activity is “Non-toxic”.

What about the AUC(0-t) at 72 h [9] of the same compound?
Its AUC(0-t) at 72 h is 11300 µM·h.

And the Activity (Rattus norvegicus [10])?
The Activity was “Non-toxic”.

What about the Activity (Rattus norvegicus [11]) of the same compound?
Its Activity is “Active”.

What about the half-life [12] of the same compound?
The half-life was 0.817 h.

And the half-life [13]?
The half-life was 1.15 h.

And the half-life [14]?
The half-life was 1.17 h.

And the Papp [15]?
The Papp was 69.8 ×10⁻⁶ cm/s.

And the IC50 [16]?
Its IC50 is > 40 µM.

And the inhibition at 30 µM (hERG)?
Its inhibition at 30 µM is 20%.

And the Vd [17]?
Its Vd is 0.26 L/kg.

And the half-life [18]?
Its half-life is 5.1 h.

What about the Vd [19] of the same compound?
The Vd was 0.3 L/kg.

And the Vd [20]?
Its Vd is 1.6 L/kg.

And the clearance [21]?
Its clearance is 5.3 mL/min/kg.

What about the Vd [22] of the same compound?
The Vd was 1.1 L/kg.

And the IC50 [23]?
The IC50 was 0.0011 µM.

What about the Kd [24] of the same compound?
Its Kd is 0.00048 µM.

And the Kd [25]?
Its Kd is 0.36 µM.

And the IC50 (BaF3)?
The IC50 was 0.07 µM.
